Measured values as given in publication PMC6945522, “Promoting tau secretion and propagation by hyperactive p300/CBP via autophagy-lysosomal pathway in tauopathy” (Molecular Neurodegeneration, 2020).

Target: T1, p300 (Homo sapiens, UniProt Q09472)
T1 construct: gene EP300; fragment of p300 (aa 1815–1910), including the PHD, catalytic (HAT), ZZ and TAZ2 domains
T1 sequence (Q09472 1815-1910): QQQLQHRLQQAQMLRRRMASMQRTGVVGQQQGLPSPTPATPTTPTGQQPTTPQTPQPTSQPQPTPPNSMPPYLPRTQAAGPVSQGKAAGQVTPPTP
Assay: HTRF tau acetylation assay with purified p300 core domain; confirmed by orthogonal MMBC assay and DSF binding
Assay type: biochemical

## Cc1cc2c(c(=S)[nH]1)C(=O)O/C2=C\c1ccco1 [compound 37892, SMDC37892]
  IC50: 35.3 µM
